Reference: article PMC9133015 (Nature Communications, 2022)
Several values for one entry are separate records, joined by “and”; a condition that tells them apart may be missing. Equal entries are not always repeated.

How the values were obtained:
PC-3 cells [1] = assay: Cell growth assay (5-day course); format: cell-based, human; conditions: for Relative proliferation rate / optical density: replicates
22Rv1 cells [2] = assay: Cell growth assay (5-day course); format: cell-based, human
22Rv1 shDYRK2 cells = assay: Anti-proliferation activity assay (CCK8, 72 h); format: cell-based, human
DU145 shDYRK2 cells = assay: Anti-proliferation activity assay (CCK8, 72 h); format: cell-based, human
PC-3 cells [3] = assay: Colony formation assay; format: cell-based, human; conditions: replicates
RWPE-1 cells = assay: Anti-proliferation activity assay (CCK8, 72 h); format: cell-based; conditions: for Relative proliferation rate (%) mean / Relative proliferation rate (%) / optical density: RWPE1; for Relative proliferation rate (%) / optical density: replicates
22Rv1 cells [4] = assay: Anti-proliferation activity assay (CCK8, 72 h); format: cell-based, human; conditions: for Relative proliferation rate (%) mean / Relative proliferation rate (%) / optical density: 22Rv1; for Relative proliferation rate (%) / optical density: replicates
[5] = Homo sapiens, 22Rv1, read-out: inhibitory rate (%) mean
[6] = Homo sapiens, DU-145, read-out: inhibitory rate (%) mean

CCN1CCN(C(=O)c2ccc(Nc3ncc(F)c(-c4ccc5nc(N(C)C)sc5c4)n3)nc2)CC1 [YK-2-69]
Relative proliferation rate (PC-3 cells [1]; PC-3, 4 µM, day 3): 2.023 and 1.947 and 2.001 | optical density (PC-3 cells [1]; PC-3, 4 µM, day 3): 0.554 and 0.533 and 0.548 | Relative proliferation rate mean (PC-3 cells [1]; PC-3, 4 µM, day 4, mean): 3.8824 | Relative proliferation rate (PC-3 cells [1]; PC-3, 4 µM, day 4): 3.992 and 3.985 and 3.671 | optical density (PC-3 cells [1]; PC-3, 4 µM, day 4): 1.093 and 1.091 and 1.005 | cell proliferation, 5-day course/colony (in words) (PC-3 cells [1]; PC-3 cells, dose-dependent): significantly inhibited the cell proliferation | Relative proliferation rate mean (22Rv1 cells [2]; 22Rv1, 0.5 µM, day 1): 1.179 | Relative proliferation rate mean (22Rv1 cells [2]; 22Rv1, 0.5 µM, day 2): 1.871 | Relative proliferation rate mean (22Rv1 cells [2]; 22Rv1, 0.5 µM, day 3): 2.62 | Relative proliferation rate mean (22Rv1 cells [2]; 22Rv1, 0.5 µM, day 4): 3.018 | Relative proliferation rate mean (22Rv1 cells [2]; 22Rv1, 1 µM, day 1): 1.007 | Relative proliferation rate mean (22Rv1 cells [2]; 22Rv1, 1 µM, day 2): 1.59 | Relative proliferation rate mean (22Rv1 cells [2]; 22Rv1, 1 µM, day 3): 1.919 | Relative proliferation rate mean (22Rv1 cells [2]; 22Rv1, 1 µM, day 4): 2.135 | Relative proliferation rate mean (22Rv1 cells [2]; 22Rv1, 2 µM, day 1): 0.9977 | Relative proliferation rate mean (22Rv1 cells [2]; 22Rv1, 2 µM, day 2): 1.414 | Relative proliferation rate mean (22Rv1 cells [2]; 22Rv1, 2 µM, day 3): 1.775 | Relative proliferation rate mean (22Rv1 cells [2]; 22Rv1, 2 µM, day 4): 1.902 | cell proliferation, 5-day course/colony (in words) (22Rv1 cells [2]; 22Rv1 cells, dose-dependent): significantly inhibited the cell proliferation | inhibitory activity on proliferation (in words) (22Rv1 shDYRK2 cells; 22Rv1 shDYRK2 cells, even at 80 μM): almost no inhibitory activity | inhibition at 10 µM (22Rv1 shDYRK2 cells; [5]): 19.7% | inhibition at 2.5 µM (22Rv1 shDYRK2 cells; [5]): 17.3% | inhibition at 20 µM (22Rv1 shDYRK2 cells; [5]): 26.3% | inhibition at 0.625 µM (22Rv1 shDYRK2 cells; Homo sapiens, 22Rv1 KD, inhibitor 0.625 uM, read-out: inhibitory rate (%) mean): 9.79% | inhibition at 1.25 µM (22Rv1 shDYRK2 cells; Homo sapiens, 22Rv1 KD, inhibitor 1.25 uM, read-out: inhibitory rate (%) mean): 14.3% | inhibition at 5 µM (22Rv1 shDYRK2 cells; Homo sapiens, 22Rv1 KD, inhibitor 5 uM, read-out: inhibitory rate (%) mean): 19.2% | inhibition at 40 µM (22Rv1 shDYRK2 cells; Homo sapiens, 22Rv1 KD, inhibitor 40 uM, read-out: inhibitory rate (%) mean): 31.8% | inhibition at 80 µM (22Rv1 shDYRK2 cells; Homo sapiens, 22Rv1 KD, inhibitor 80 uM, read-out: inhibitory rate (%) mean): 43.8% | IC50 (22Rv1 shDYRK2 cells; Homo sapiens, 22Rv1 shDYRK2 cells, read-out: IC50 antiproliferative activity): > 80 µM | inhibitory activity on proliferation (in words) (DU145 shDYRK2 cells; DU145 shDYRK2 cells, even at 80 μM): almost no inhibitory activity | inhibition at 0.625 µM (DU145 shDYRK2 cells; Homo sapiens, DU-145, DU145 KD, inhibitor 0.625 uM, read-out: inhibitory rate (%) mean): 7.98% | inhibition at 1.25 µM (DU145 shDYRK2 cells; Homo sapiens, DU-145, DU145 KD, inhibitor 1.25 uM, read-out: inhibitory rate (%) mean): 10.3% | inhibition at 5 µM (DU145 shDYRK2 cells; Homo sapiens, DU-145, DU145 KD, inhibitor 5 uM, read-out: inhibitory rate (%) mean): 13.5% | inhibition at 10 µM (DU145 shDYRK2 cells; Homo sapiens, DU-145, DU145 KD, inhibitor 10 uM, read-out: inhibitory rate (%) mean): 15.4% | inhibition at 40 µM (DU145 shDYRK2 cells; Homo sapiens, DU-145, DU145 KD, inhibitor 40 uM, read-out: inhibitory rate (%) mean): 17.2% | inhibition at 80 µM (DU145 shDYRK2 cells; Homo sapiens, DU-145, DU145 KD, inhibitor 80 uM, read-out: inhibitory rate (%) mean): 18.1% | IC50 (DU145 shDYRK2 cells; Homo sapiens, DU-145, DU145 shDYRK2 cells, read-out: IC50 antiproliferative activity): > 80 µM | inhibition at 2.5 µM (DU145 shDYRK2 cells; [6]): 11.8% | inhibition at 20 µM (DU145 shDYRK2 cells; [6]): 16% | Colony formation (cell number) (PC-3 cells [3]; 1 µM): 40 cell number and 45 cell number and 35 cell number | Colony formation (cell number) (PC-3 cells [3]; 2 µM): 10 cell number and 12 cell number and 9 cell number | Colony formation (cell number) (PC-3 cells [3]; 4 µM): 5 cell number and 6 cell number | Relative proliferation rate (%) mean (RWPE-1 cells; 0.078 uM): 1.172% | Relative proliferation rate (%) (RWPE-1 cells; 0.078 uM): 1.172% and 0.4794% and 1.866% | optical density (RWPE-1 cells; 0.078 uM): 1.096 and 1.038 and 1.052 | Relative proliferation rate (%) mean (RWPE-1 cells; 0.3125 uM): 5.563% | Relative proliferation rate (%) (RWPE-1 cells; 0.3125 uM): 5.591% and 3.3557% and 7.743% | optical density (RWPE-1 cells; 0.3125 uM): 1.047 and 1.008 and 0.989 | Relative proliferation rate (%) mean (RWPE-1 cells; 1.25 uM): 13.0424% | Relative proliferation rate (%) (RWPE-1 cells; 1.25 uM): 13.0748% and 7.862% and 18.1903% | optical density (RWPE-1 cells; 1.25 uM): 0.964 and 0.961 and 0.877 | Relative proliferation rate (%) mean (RWPE-1 cells; 5 uM): 20.9606% | Relative proliferation rate (%) (RWPE-1 cells; 5 uM): 21.0099% and 16.7785% and 25.0933% | optical density (RWPE-1 cells; 5 uM): 0.876 and 0.868 and 0.803 | Relative proliferation rate (%) mean (RWPE-1 cells; 20 uM): 54.7483% | Relative proliferation rate (%) (RWPE-1 cells; 20 uM): 54.734% and 48.1304% and 61.3806% | optical density (RWPE-1 cells; 20 uM): 0.502 and 0.541 and 0.414 | Relative proliferation rate (%) mean (RWPE-1 cells; 80 uM): 72.5701% | Relative proliferation rate (%) (RWPE-1 cells; 80 uM): 72.5879% and 64.5254% and 80.597% | optical density (RWPE-1 cells; 80 uM): 0.304 and 0.37 and 0.208 | inhibitory activity against proliferation (in words) (RWPE-1 cells; RWPE-1 cells): weak inhibitory activity | Relative proliferation rate (%) mean (22Rv1 cells [4]; 0.0049 uM): 8.6252% | Relative proliferation rate (%) (22Rv1 cells [4]; 0.0049 uM): 6.856% and 10.4024% and 8.617% | optical density (22Rv1 cells [4]; 0.0049 uM): 0.951 and 0.913 and 0.912 | Relative proliferation rate (%) mean (22Rv1 cells [4]; 0.078 uM): 28.6346% | Relative proliferation rate (%) (22Rv1 cells [4]; 0.078 uM): 32.9089% and 24.3376% and 28.6573% | optical density (22Rv1 cells [4]; 0.078 uM): 0.685 and 0.771 and 0.712 | Relative proliferation rate (%) mean (22Rv1 cells [4]; 0.3125 uM): 33.639% | Relative proliferation rate (%) (22Rv1 cells [4]; 0.3125 uM): 36.3369% and 30.9127% and 33.6673% | optical density (22Rv1 cells [4]; 0.3125 uM): 0.65 and 0.704 and 0.662 | Relative proliferation rate (%) mean (22Rv1 cells [4]; 1.25 uM): 55.2648% | Relative proliferation rate (%) (22Rv1 cells [4]; 1.25 uM): 58.57% and 51.9136% and 55.3106% | optical density (22Rv1 cells [4]; 1.25 uM): 0.423 and 0.49 and 0.446 | Relative proliferation rate (%) mean (22Rv1 cells [4]; 5 uM): 68.233% | Relative proliferation rate (%) (22Rv1 cells [4]; 5 uM): 72.38% and 64.0824% and 68.2365% | optical density (22Rv1 cells [4]; 5 uM): 0.282 and 0.366 and 0.317 | Relative proliferation rate (%) mean (22Rv1 cells [4]; 20 uM): 73.6982% | Relative proliferation rate (%) (22Rv1 cells [4]; 20 uM): 76.5916% and 70.7556% and 73.7475% | optical density (22Rv1 cells [4]; 20 uM): 0.239 and 0.298 and 0.262 | Relative proliferation rate (%) mean (22Rv1 cells [4]; 80 uM): 89.3325% | Relative proliferation rate (%) (22Rv1 cells [4]; 80 uM): 93.7316% and 84.8871% and 89.3788% | optical density (22Rv1 cells [4]; 80 uM): 0.064 and 0.154 and 0.106 | inhibitory activity against proliferation (in words) (22Rv1 cells [4]; 22Rv1 cells): potent inhibitory activity
